Oc1ccccc1/C=N/CC/N=C/c1ccccc1O
solubility (mole fraction)
Details | in dichloromethane | in diethyl ether | in ethanol | in methanol | in n-hexane | in toluene
268.15 K | 0.0352 | 0.00119 | – | – | – | –
273.15 K | 0.0369 | 0.00136 | – | – | – | –
278.15 K | 0.0408 | 0.00165 | 0.00026 | 0.0003 | – | 0.00947
283.15 K | 0.0469 | 0.00193 | 0.00035 | 0.00036 | – | 0.0115
288.15 K | 0.0533 | 0.00232 | 0.00048 | 0.00049 | 0.00084 | 0.014
293.15 K | 0.0605 | 0.00281 | 0.00069 | 0.00064 | 0.00095 | 0.0164
298.15 K | 0.0696 | 0.0035 | 0.0009 | 0.00081 | 0.00112 | 0.0198
303.15 K | 0.0775 | 0.00455 | 0.00112 | 0.00099 | 0.00127 | 0.0256
308.15 K | – | – | 0.00147 | 0.00125 | 0.00143 | 0.0305
313.15 K | – | – | 0.00199 | 0.00155 | 0.00161 | 0.0379
318.15 K | – | – | 0.00252 | 0.00185 | 0.00186 | 0.047

Reference: BigSolDB 2.1
